The source of these data is patent US10561681B2, “Antimetastatic 2H-selenopheno[3,2-h]chromenes, synthesis thereof, and methods of using same agents” (Latvian Institute of Organic Synthesis, priority 2016, dated 2020).

Marks after values point to notes of the source that are not given here.

The subject of data set [1] is mouse sarcoma CCRF-S180 II (CCL-8). Kind of data set: Mouse non-metastatic cancer model, sarcoma CCL-8 s.c. in ICR mice. In kind it is in vivo. Particulars: s.c. Day 1, 2, 3, 4, 7, 8, 9, 10, 11; dose 5 mg/kg, total dose 45 mg/kg. How it is done:
(§1) Six-week-old female ICR and BALB/c mice were purchased from the University of Tartu Laboratory Animal Centre (Estonia). The mice were housed five to a cage, and under standard conditions (21-23° C., 12 h light: dark cycle), fed ad libitum (R3 diet, Lactamin AB, Kimstad, Sweden) and observed daily. The experimental procedures involving experimental animals were carried out in accordance with the guidelines of the European Community, local laws and policies, and were approved by the Latvian Animal Protection Ethical Committee, the Food and Veterinary Service, Riga, Latvia.
(§2) In vivo studies were performed utilizing the mouse sarcoma CCRF-S180 II (CCL-8) and Lewis lung carcinoma (LLC) cell line. All cell lines were purchased from ATCC. The cells were grown in Dulbecco's modified Eagle's medium (Sigma) supplemented with 10% fetal calf serum (Sigma).
ICR mice were subcutaneously inoculated in the back with 5×10^6 CCL-8 cells and BALB/c mice were inoculated with 1×10^6 LLC (Lewis Lung Carcinoma) cells, which were suspended in 0.1 mL of PBS on day zero of the study. The compounds dissolved in DMSO and then in 0.1 mL water (DMSO final concentration 1%) were injected s.c. Mice in the untreated group were similarly given doses of 0.1 mL of water with DMSO. Tumor volume (tumor volume V=[…], a is maximal and b the minimal tumor diameter) was recorded twice per week. The mice were examined every other day for diseases including appearance, weight and behavior. The mice were sacrificed at day 16 of the experiment by decapitation after ketamine/xylazine anesthesia.

In data set [2] the test system is Lewis lung carcinoma (LLC). Kind of data set: Mouse non-metastatic cancer model, Lewis lung carcinoma s.c. in BALB/c mice. The format is in vivo. Particulars: s.c. Day 1, 2, 3, 4, 7, 8, 9, 10, 11; dose 20 mg/kg, total dose 180 mg/kg. How it is done: as §1, §2
ICR mice were subcutaneously inoculated in the back with 5×10^6 CCL-8 cells and BALB/c mice were inoculated with 1×10^6 LLC (Lewis Lung Carcinoma) cells, which were suspended in 0.1 mL of PBS on day zero of the study. The compounds dissolved in DMSO and then in 0.1 mL water (DMSO final concentration 1%) were injected s.c. Mice in the untreated group were similarly given doses of 0.1 mL of water with DMSO. Tumor volume (tumor volume V=[…], a is maximal and b the minimal tumor diameter) was recorded twice per week. […]

For the next data set, the system named is malignant tumor cells. Kind of data set: In vitro cytotoxicity on monolayer tumor cell lines (panel, summary in words). Particulars: summary of Table 1. In kind it is cell-based. The method, then: Anticancer activity of selenopheno[h]chromenes was tested in vitro using cytotoxicity assay. Thus, monolayer tumor cell lines MDA-MB-435s (human melanoma), MCF-7 (human breast adenocarcinoma, estrogen-positive), MES-SA (human uterus sarcoma), HT-1080 (human fibrosarcoma), A549 (human lung carcinoma), SH-SY5Y (human neuroblastoma), CCL-8 (mouse sarcoma), MG-22A (mouse hepatoma), and HepG2 (human hepatocellular carcinoma) were cultured in standard medium DMEM (Dulbecco's modified Eagle's medium) (“Sigma”) supplemented with 10% fetal bovine serum (“Sigma”). About 2-9·10^4 cells/mL (depending on line nature) were placed in 96-well plates immediately after compounds were added to the wells. Untreated cells were used as a control. The plates were incubated for 72 h, 37° C., 5% CO2. The number of surviving cells was determined using 3-(4,5-dimethylthiazol-2-yl)-2,5-diphenyltetrazolinium bromide (MTT). MTT-test: after incubating culture medium was removed and 200 μL fresh medium with 10 mM HEPES was added in each well of the plate, than 20 μL MTT (2 mg/mL in HBSS) was added. After incubation (3 hr, 37° C., 5% CO2), the medium with MTT was removed and 200 μL DMSO were added at once to each sample. The samples were tested at 540 nm on Anthos HT II photometer.

In the next data set the test system is B16-F10 melanoma cells. Kind of data set: Melanoma model of lung metastasis in C57BL/6 mice. Particulars: total dose 140 mg/kg; for Inhibition of melanoma metastasis in lung: s.c. Day 1, 7, 8, 9, 10, 11, 14, 20 mg/kg, day 21; for Animals (group of six) without melanoma metastasis: s.c. In kind it is in vivo, mouse. How it is done: B16-F10 cells (10,000/0.1 ml PBS) were injected i.v. into syngeneic mice. The number of macroscopic lung metastases was determined 21 days later.
C57BL/6 mice were injected with 100,000 B16-F10 melanoma cells into the mice via the tail vein and treatment started 24 hr later with subcutaneous injections (s.c.) of compounds administered according to the following scheme: 1, 7, 8, 9, 10, 11 and 14th days in dose 20 mg/kg. Mice in the control group were similarly given doses of 0.1 mL of water with DMSO (DMSO final concentration <1%). Twenty-one days later, all mice were anesthetized with ketamine/xylazine and euthanized, the mice were sacrificed and the black melanoma nodules on the lungs were measured. In each experiment, mice were weighed twice weekly.

Data set [3] in a line: Acute p.o. toxicity, Up-and-Down Procedure (OECD 425). Particulars: mouse, in vivo, po; p.o. single dose, 6 weeks old male ICR mice. The method, then: Acute p.o. toxicity (LD50) was estimated by the Up-and-Down Procedure according to the OECD Test Guideline 425 [OECD (2001) Guideline for testing of chemicals OECD 425, acute oral toxicity—Up-and-Down Procedure, Paris, p. 1-26]. Animals were observed daily for clinical signs or mortality over a period of two weeks following the treatment. Compounds were dissolved in DMSO and then in PBS (pH 7.4; DMSO final concentration <1%). The test substance was administered in a single dose p.o. to mice. […]
Acute toxicity in vivo has been determined for I-10 and I-11 on 6 weeks old male ICR mice.

Another data set relates to 4T1 carcinoma cells. Description: 4T1 model of lung metastasis (tail vein) in Balb/c mice. The format is in vivo, mouse. Particulars: for % of the total area occupied by metastases, % (control = 100) / % of the total area occupied by metastases, Mean ± SD: 20 mg/kg, days 1, 4, 7, 9, 11, 14. The method, then:
Compounds were administered s.c. at 1, 4, 7, 9, 11 and 14th days. 4T1 cells (10,000/0.1 ml PBS) were injected i.v. into syngeneic mice. The metastasis at day 16 are shown for each mouse, and averages are provided for illustration.
Balb/c mice were injected with 100,000 4T1 […] cancer cells into the tail vein and treatment started 24 hr later with subcutaneous (s.c.), intraperitoneal (i.p.) injections or oral administration (p.o.) of compounds according to the following scheme: 1, 4, 7, 9, 11 and 14th days in dose 20 or 40 mg/kg. Compounds were dissolved in DMSO and the solution were diluted by water (DMSO final concentration <1%). Mice in the control group were similarly given doses of 0.1 mL of water with DMSO. Twenty-one days later, all mice were anesthetized with ketamine/xylazine and euthanized, the mice were sacrificed spleens were excised from the mice and weighed. In each experiment, mice were weighed twice weekly.
(Lewis et al, Cancer Res, 2005, 65) Pulmonary metastases were enumerated by intra-tracheal injection of India ink (15% India Ink, 85% water, 3 drops NH4OH/100 ml). India ink injected lungs were washed in Feket's solution (300 ml 70% EtOH, 30 ml 37% formaldehyde, 5 ml glacial acetic acid) and then placed fresh Feket's solution overnight. […] White tumor nodules against a black lung background were measured.

Consider `COC(=O)c1cc2ccc3c(Br)c(CN4CCN(C)CC4)[se]c3c2oc1=O` [Compound I-10, Methyl 7-bromo-8-((4-methylpiperazin-1-yl)methyl)-2-oxo-2H-selenopheno[3,2-h]chromene-3-carboxylate], for which the “Anticancer activity in vivo (inhibition, %), CCL-8 tumor volume” value in data set [1] is 42** %. Moreover, the “Anticancer activity in vivo (inhibition, %), Lewis Lung Carcinoma primary tumor growth” value in data set [2] is recorded as 34%. Also, in the data set with malignant tumor cells, the “Cytotoxicity on cancer cell lines” value is “low toxic to the cancer cell lines”. Moreover, the “Inhibition of melanoma metastasis in lung” value in the data set on B16-F10 melanoma cells amounted to 74%. The “Animals (group of six) without melanoma metastasis” value with B16-F10 melanoma cells was “five”. The same compound had a 50% lethal dose (LD50) at 2 weeks in data set [3] of 891 mg/kg. In addition, the “Effect on development of splenomegaly” value in the data set with 4T1 carcinoma cells (4T1 i.v.) is given as “does not affect the development of splenomegaly”. The Spleen weight increase in the data set on 4T1 carcinoma cells (4T1 i.v., dose not stated, control with tumor +147%) amounted to 63%. The “% of the total area occupied by metastases, % (control = 100)” value was 86% with 4T1 carcinoma cells (i.p.), 32** % in the data set with 4T1 carcinoma cells (p.o.) and 19* % with 4T1 carcinoma cells (s.c.). For the same compound, the “% of the total area occupied by metastases, Mean ± SD” value is given as 43 ± 40% in the data set with 4T1 carcinoma cells (i.p.); 16 ± 18% in the data set with 4T1 carcinoma cells (p.o.); 10 ± 29% in the data set on 4T1 carcinoma cells (s.c., control 50 ± 33).
With `O=C(O)c1cc2ccc3c(Br)c(C4(O)CCCCC4)[se]c3c2oc1=O` [Compound I-11, 7-Bromo-8-(1-hydroxycyclohexyl)-2-oxo-2H-selenopheno[3,2-h]chromene-3-carboxylic acid], the “Anticancer activity in vivo (inhibition, %), CCL-8 tumor volume” value in data set [1] was 58* %. Besides, in the data set on malignant tumor cells, the “Cytotoxicity on cancer cell lines” value is recorded as “complete loss of cytotoxicity”. Moreover, in the data set on B16-F10 melanoma cells, the “Inhibition of melanoma metastasis in lung” value amounted to 96%. In addition, the “Animals (group of six) without melanoma metastasis” value in the data set on B16-F10 melanoma cells is “four”. For the same compound, the LD50 at 2 weeks in data set [3] is over 2000 mg/kg. The “Prevention of formation of 4T1 carcinoma lung metastasis” value with 4T1 carcinoma cells (five mice per group) was 98%. In addition, the “% of the total area occupied by metastases, % (control = 100)” value with 4T1 carcinoma cells (i.p.) is reported as 62%; in the data set with 4T1 carcinoma cells (p.o.) it was 28** %; in the data set on 4T1 carcinoma cells (s.c.), 39** %. For the same compound, the “% of the total area occupied by metastases, Mean ± SD” value in the data set with 4T1 carcinoma cells (i.p.) is 31 ± 41%; in the data set with 4T1 carcinoma cells (p.o.), 14 ± 31%; with 4T1 carcinoma cells (s.c., control 50 ± 33) it was 20 ± 30%.
